For 27 molecules, IC50 results are on record in patent publication US8697715B2, “Serine/threonine kinase inhibitors” (Array BioPharma Inc., priority 2012, dated 2014).

The assay deals with PMA-stimulated P90RSK(Ser380) phosphorylation in HepG2 cells. Briefly: Cellular P90RSK(Ser380) Phosphorylation Assay. To be noted: Homo sapiens, read-out: Biological Example 2 IC50 (nM), 1.5 hours compound incubation, PMA 100 ng/mL 30 minutes, normalized to GAPDH, single assay or mean of multiple assays. The format is cell-based. As for the experimental part: Inhibition of PMA-stimulated P90RSK(Ser380) phosphorylation was determined by the following in vitro cellular mechanistic assay, which comprises incubating cells with a compound for 1.5 hours and quantifying fluorescent pP90RSK(Ser380) signal on fixed cells and normalizing to GAPDH signal.
HepG2 cells were obtained from ATCC and grown in DMEM supplemented with 10% fetal bovine serum. Cells were plated in 96-well plates at 35,000 cells/well and allowed to attach overnight at 37° C./5% CO2. Diluted compounds were then added at a final concentration of 0.5% DMSO. After 1.5 hours compound incubation, cells were stimulated with the addition of phorbol 12-myristate 13-acetate (“PMA”) at a final concentration of 100 ng/mL; the PMA stimulation was a 30-minute incubation at 37° C./5% CO2. After the 30-minute PMA stimulation, cells were washed with phosphate buffered saline (“PBS”) and fixed in 3.7% formaldehyde in PBS at room temperature for 15-20 minutes. This was followed by another wash in PBS and then permeabilization in 100% MeOH at room temperature for 10-15 minutes. Following the permeabilization incubation, cells were washed in PBS/0.05% Tween-20, followed by a block in Odyssey blocking buffer (LI-COR Biosciences) for at least 1 hour. […] Both secondary antibodies were used at a 1:1000 dilution. Cells were then washed and analyzed for fluorescence at both wavelengths using the Odyssey Infrared Imaging System (LI-COR Biosciences). Phosphorylated P90RSK(Ser380) signal was normalized to GAPDH signal.
With `O=c1cc(-c2ccnc(NC3CCOCC3)n2)ccn1[C@H](CO)c1ccc(Cl)c(F)c1` [Example 1, (S)-1-(1-(4-chloro-3-fluorophenyl)-2-hydroxyethyl)-4-(2-((tetrahydro-2H-pyran-4-yl)amino)pyrimidin-4-yl)pyridin-2(1H)-one], the IC50 worked out at 31.9 nM.

`O=c1cc(-c2ccnc(N[C@H]3CCOC[C@H]3F)n2)ccn1[C@H](CO)c1ccc(Cl)c(F)c1` [Example 2, 1-((S)-1-(4-chloro-3-fluorophenyl)-2-hydroxyethyl)-4-(2(((3S,4S)-3-fluorotetrahydro-2H-pyran-4-yl)amino)pyrimidin-4-yl)pyridin-2(1H)-one]: the IC50 is 59.1 nM. Under `O=c1cc(-c2ccnc(N[C@@H]3CCOC[C@H]3F)n2)ccn1[C@H](CO)c1ccc(Cl)c(F)c1` [Example 3, 1-((S)-1-(4-chloro-3-fluorophenyl)-2-hydroxyethyl)-4-(2-(((3S,4R)-3-fluorotetrahydro-2H-pyran-4-yl)amino)pyrimidin-4-yl)pyridin-2(1H)-one] stands 40.3 nM.

Turning to `O=c1cc(-c2ccnc(N[C@H]3CCOC[C@H]3F)n2)ccn1[C@H](CO)c1ccc(Cl)c(Cl)c1` [Example 4, 1-((S)-1-(3,4-dichlorophenyl)-2-hydroxyethyl)-4-(2-(((3S,4S)-3-fluorotetrahydro-2H-pyran-4-yl)amino)pyrimidin-4-yl)pyridin-2(1H)-one], the IC50 is 8.5 nM.

In the case of `Cn1nccc1Nc1nccc(-c2ccn([C@H](CO)c3ccc(Cl)c(F)c3)c(=O)c2)n1` [Example 39, (S)-1-(1-(4-chloro-3-fluorophenyl)-2-hydroxyethyl)-4-(2-((1-methyl-1H-pyrazol-5-yl)amino)pyrimidin-4-yl)pyridin-2(1H)-one], the IC50 was 15.5 nM. Under `O=c1cc(-c2ccnc(N[C@@H]3C[C@@H]4C[C@H]3CO4)n2)ccn1[C@H](CO)c1ccc(Cl)c(F)c1` [Example 42, 4-(2-((1S,4R,5R)-2-oxabicyclo[2.2.1]heptan-5-ylamino)pyrimidin-4-yl)-1-((S)-1-(4-chloro-3-fluorophenyl)-2-hydroxyethyl)pyridin-2(1H)-one] stands 74 nM; under `COc1ccc([C@@H]([C@H]2CCCN2)n2ccc(-c3ccnc(NC4CCOCC4)n3)cc2=O)cc1F` [Example 50, 1-((S)-(3-fluoro-4-methoxyphenyl)((R)-pyrrolidin-2-yl)methyl)-4-(2-((tetrahydro-2H-pyran-4-yl)amino)pyrimidin-4-yl)pyridin-2(1H)-one], 292 nM; under `O=c1cc(-c2ccnc(NC3CCOCC3)n2)ccn1[C@H](CO)c1cccc(Cl)c1` [Example 57, (S)-1-(1-(3-chlorophenyl)-2-hydroxyethyl)-4-(2-((tetrahydro-2H-pyran-4-yl)amino)pyrimidin-4-yl)pyridin-2(1H)-one], 1770 nM. The figure for `C[C@@H](CO)Nc1nccc(-c2ccn(C(CO)c3cccc(Cl)c3)c(=O)c2)n1` (stereo partly drawn) [Example 58, 1-(1-(3-chlorophenyl)-2-hydroxyethyl)-4-(2-(((S)-1-hydroxypropan-2-yl)amino)pyrimidin-4-yl)pyridin-2(1H)-one] is 708 nM. Take `C[C@@H](CO)Nc1nccc(-c2ccn(C(CO)c3ccc(F)c(Cl)c3)c(=O)c2)n1` (stereo partly drawn) [Example 60, 1-(1-(3-chloro-4-fluorophenyl)-2-hydroxyethyl)-4-(2-(((S)-1-hydroxypropan-2-yl)amino)pyrimidin-4-yl)pyridin-2(1H)-one]: the IC50 was found to be 1610 nM. Under `O=c1cc(-c2ccnc(NC3CCOCC3)n2)ccn1C(c1ccc(Cl)c(F)c1)[C@@H]1CCCN1` (stereo partly drawn) [Example 102, 1-((4-chloro-3-fluorophenyl)((S)-pyrrolidin-2-yl)methyl)-4-(2-((tetrahydro-2H-pyran-4-yl)amino)pyrimidin-4-yl)pyridin-2(1H)-one] stands over 5000 nM; under `CC[C@@H](CO)Nc1nccc(-c2ccn(C(C)c3ccc(Cl)c(F)c3)c(=O)c2)n1` (stereo partly drawn) [Example 134, 1-(1-(4-chloro-3-fluorophenyl)ethyl)-4-(2-(((S)-1-hydroxybutan-2-yl)amino)pyrimidin-4-yl)pyridin-2(1H)-one], 544 nM. On to `CCc1nccc(Nc2nccc(-c3ccn(C(CO)c4ccc(Cl)c(F)c4)c(=O)c3)n2)n1` (stereo not drawn) [Example 139, 1-(1-(4-chloro-3-fluorophenyl)-2-hydroxyethyl)-4-(2-((2-ethylpyrimidin-4-yl)amino)pyrimidin-4-yl)pyridin-2(1H)-one], for which the IC50 was determined as 372 nM. Under `O=c1cc(-c2ccnc(NC3CCOCC3)n2)ccn1CCc1ccc(OC(F)(F)F)cc1` [Example 157, 4-(2-((tetrahydro-2H-pyran-4-yl)amino)pyrimidin-4-yl)-1-(4-(trifluoromethoxy)phenethyl)pyridin-2(1H)-one] stands 46.3 nM; under `Cc1nn(C)cc1Nc1nccc(-c2ccn(C(CO)c3ccc(Cl)c(F)c3)c(=O)c2)n1` (stereo not drawn) [Example 166, 1-(1-(4-chloro-3-fluorophenyl)-2-hydroxyethyl)-4-(2-((1,3-dimethyl-1H-pyrazol-4-yl)amino)pyrimidin-4-yl)pyridin-2(1H)-one], 12.9 nM; under `Cc1cc(Nc2nccc(-c3ccn([C@H](CO)c4ccc(Cl)c(F)c4)c(=O)c3)n2)n(C)n1` [Example 167, (S)-1-(1-(4-chloro-3-fluorophenyl)-2-hydroxyethyl)-4-(2-((1,3-dimethyl-1H-pyrazol-5-yl)amino)pyrimidin-4-yl)pyridin-2(1H)-one], 100 nM. The figure for `C=C(c1ccc(Cl)c(F)c1)n1ccc(-c2ccnc(Nc3ccnc(C)c3)n2)cc1=O` [Example 172, 1-(1-(4-chloro-3-fluorophenyl)vinyl)-4-(2-((2-methylpyridin-4-yl)amino)pyrimidin-4-yl)pyridin-2(1H)-one] is 12.9 nM; for `CCn1cc(Nc2nccc(-c3ccn([C@H](CO)c4ccc(Cl)c(F)c4)c(=O)c3)n2)c(C)n1` [Example 173, (S)-1-(1-(4-chloro-3-fluorophenyl)-2-hydroxyethyl)-4-(2-((1-ethyl-3-methyl-1H-pyrazol-4-yl)amino)pyrimidin-4-yl)pyridin-2(1H)-one] it is 110 nM; for `Cc1nc[nH]c1Nc1nccc(-c2ccn([C@H](CO)c3ccc(Cl)c(F)c3)c(=O)c2)n1` [Example 185, (S)-1-(1-(4-chloro-3-fluorophenyl)-2-hydroxyethyl)-4-(2-((4-methyl-1H-imidazol-5-yl)amino)pyrimidin-4-yl)pyridin-2(1H)-one] it is 19.6 nM. Under `Cn1cc(C(c2ccc(Cl)c(Cl)c2)n2ccc(-c3nc(NC4CCOCC4)ncc3F)cc2=O)cn1` (stereo not drawn) [Example 209, 1-((3,4-dichlorophenyl)(1-methyl-1H-pyrazol-4-yl)methyl)-4-(5-fluoro-2-((tetrahydro-2H-pyran-4-yl)amino)pyrimidin-4-yl)pyridin-2(1H)-one] stands 6.7 nM; under `O=c1cc(-c2ccnc(NC3CCOCC3)n2)ccn1Cc1cc2ccc(Cl)cc2[nH]1` [Example 250, 1-((6-chloro-1H-indol-2-yl)methyl)-4-(2-((tetrahydro-2H-pyran-4-yl)amino)pyrimidin-4-yl)pyridin-2(1H)-one], 15.2 nM; under `O=c1cc(-c2ccnc(NC3CCOCC3)n2)ccn1Cc1cc2c(F)cccc2[nH]1` [Example 266, 1-((4-fluoro-1H-indol-2-yl)methyl)-4-(2-((tetrahydro-2H-pyran-4-yl)amino)pyrimidin-4-yl)pyridin-2(1H)-one], 8.6 nM.

Take `O=c1cc(-c2ccnc(NC3CCOCC3)n2)ccn1Cc1cc(F)c2cc[nH]c2c1` [Example 289, 1-((4-fluoro-1H-indol-6-yl)methyl)-4-(2-((tetrahydro-2H-pyran-4-yl)amino)pyrimidin-4-yl)pyridin-2(1H)-one]: the IC50 is 20.4 nM.

For the molecule `CC(C)(N)C(=O)OC[C@H](c1ccc(Cl)c(F)c1)n1ccc(-c2ccnc(NC3CCOCC3)n2)cc1=O` [Example 290, (S)-2-(4-chloro-3-fluorophenyl)-2-(2-oxo-4-(2-((tetrahydro-2H-pyran-4-yl)amino)pyrimidin-4-yl)pyridin-1(2H)-yl)ethyl 2-amino-2-methylpropanoate], the IC50 amounted to 26.5 nM.

Turning to `O=c1cc(-c2ccnc(NC3CCOCC3)n2)ccn1[C@H](CO)c1cc2cc(F)ccc2[nH]1` [Example 291, (S)-1-(1-(5-fluoro-1H-indol-2-yl)-2-hydroxyethyl)-4-(2-((tetrahydro-2H-pyran-4-yl)amino)pyrimidin-4-yl)pyridin-2(1H)-one], the IC50 is 55.9 nM. The figure for `CC(=O)OC[C@H](c1ccc(Cl)c(F)c1)n1ccc(-c2ccnc(Nc3ccnn3C)n2)cc1=O` [Example 293, (S)-2-(4-chloro-3-fluorophenyl)-2-(4-(2-((1-methyl-1H-pyrazol-5-yl)amino)pyrimidin-4-yl)-2-oxopyridin-1(2H)-yl)ethyl acetate] is 16.8 nM; for `C=C(c1ccc(Cl)c(F)c1)n1ccc(-c2ccnc(Nc3ccnn3CC)n2)cc1=O` [Example 295, 1-(1-(4-chloro-3-fluorophenyl)vinyl)-4-(2-((1-ethyl-1H-pyrazol-5-yl)amino)pyrimidin-4-yl)pyridin-2(1H)-one] it is 204 nM.
